Where two headings read alike, the source gives them in different places. Marks after values point to notes of the source that are not given here.
What was measured:
[1] = parameters: method as in PMID 21568333; conditions: (dma)2CH+, E = −7.02, dichloromethane, 20 °C; cited from earlier work
[2] = dichloromethane, 20 °C; cited from earlier work
[3] = in methanolic aqueous solution (1:5-mixture); cited from earlier work
[4] = parameters: method as in PMID 21568333; conditions: (ind)2CH+, E = −8.76, dichloromethane, 20 °C; cited from earlier work
[5] = parameters: method as in PMID 21568333; conditions: (thq)2CH+, E = −8.22, dichloromethane, 20 °C; cited from earlier work
[6] = parameters: method as in PMID 21568333; conditions: (pyr)2CH+, E = −7.69, dichloromethane, 20 °C; cited from earlier work
[7] = in dichloromethane, 20 °C; cited from earlier work
[8] = Mayr nucleophilicity parameters N and sN (benzhydrylium methodology, Mayr-Patz equation); type: physicochemical; conditions: dichloromethane, 20 °C
Text: (1) Mayr-Patz Equation: lgk20^∘C=sN(N+E)
The MPE is a linear‐free‐energy relationship that characterizes electrophiles by the electrophilicity parameter E and nucleophiles by the solvent‐dependent parameters N (nucleophilicity) and s N (sensitivity toward changes in the electrophile reactivity). By using the MPE (Equation (1)), the construction of comprehensive nucleophilicity and electrophilicity scales becomes possible, which facilitate the comparison of various classes of Lewis base organocatalysts.^[ [110], [111], [112], [113], [114], [115], [116], [117], [118], [119], [120] ^]
(§1) In order to systematically investigate the influence of the chalcogen atom on the nucleophilicity of DHPB‐derived IChUs (Ch = O, S, Se, and Te), we utilized Mayr's benzhydrylium methodology.^[ [107] ^]
Figure 4 illustrates the linear correlations of the second‐order rate constants (lg k 2) with the electrophilicities E of Ar2CH^+ (18), which makes it possible to determine the Mayr nucleophilicity parameters N (and s N) for the DHPB‐derived IChUs IU3, ITU3, ISeU3, and ITeU3. […]
Figure 4 Linear correlations of second‐order rate constants (lg k 2) for the reactions of IU3, ITU3, ISeU3, and ITeU3 with Ar2CH^+ 18 (in dichloromethane at 20 °C) with the electrophilicities E of 18. The slopes of the linear correlations equal the nucleophile‐dependent sensitivity parameter s N. Intercepts on the abscissa reflect the nucleophilicity parameter N (N = –E at lg k 2 = 0).

[9] = Kinetics of IChU reactions with reference electrophile (pyr)2CH+ (stopped-flow photometry); type: physicochemical; conditions: E = −7.69, dichloromethane, 20 °C
Text: as §1
(§2) In accordance with observations in previous studies on ITU reactivity,^[ [119] ^] mixing the strongly colored benzhydrylium tetrafluoroborates 18 with excess IChUs in dichloromethane gave rise to decolorization of the solutions due to the formation of isochalcogenouronium tetrafluoroborates 19, which are colourless (Figure 3a). Owing to reversibility of the C─N bond formation, generated adducts 19 from the IChU/benzhydrylium reactions were not isolated but characterized by ^1H, ^13C, and ^77Se NMR spectroscopy (the ^77Se nucleus is remarkably sensitive with observed changes of around 100 ppm when comparing the ^77Se resonances of free ISeUs with those of the corresponding selenouronium tetrafluoroborates^[ [95] ^]). The kinetics of the IChU reactions with the reference electrophiles 18 were traced by photometric methods using standard stopped‐flow techniques. To establish pseudo first‐order conditions and to secure a sufficient decay of the benzhydrylium's absorbance during the course of the reactions, the IChUs were employed at higher concentrations than the benzhydrylium ions. First‐order rate constants k obs (s^−1) were determined by fitting the mono‐exponential decay function in Equation (2) to the decreasing absorbance (A) of 18 during their reaction with the IChUs as exemplified for the reaction of ITeU3 with (ind)2CH^+ in Figure 3b. (2) A=A0e^−kobst+C […]
(§3) First‐order rate constants k obs correlated linearly with the IChU concentration. Therefore, second‐order rate constants k 2 (L mol^−1 s^−1) were determined from the slope of the linear regression curves (Figure 3c ^[ [95] ^]). Second‐order rate constants k 2 for all kinetically investigated reactions of DHPB‐derived IChUs (Ch = O, S, Se, and Te) with benzhydrylium ions 18 are gathered in Table 1.
(§4) Apart from CH2Cl2 also MeCN and THF are solvents that are commonly employed in reactions involving isochalcogenoureas. […]

[10] = Brønsted basicity pKaH by chemical shift imaging NMR method in DMSO and MeCN
Experimental: Recently, Wiskur's group reported potentiometrically determined pK aH values (that is, the pK a of the conjugate acids) of achiral ITUs based on the BTM and DHPB scaffolds in aqueous media.^[ [89], [128] ^] […] In this work, we applied this NMR spectroscopic method to determine the pK aH values of further IChUs in DMSO and MeCN (Supporting Information).
First, a stock solution containing the analyte, two basic indicators and tetramethyl silane was prepared with the respective solvent (DMSO or acetonitrile).
Then 5-10 mg of acid were weighed into a NMR tube and subsequently covered with glass beads.
Figure S50: 5-10 mg of acid in Figure S51: Cover with 1 mm
Afterwards, 550 μL of the stock solution was layered carefully over the glass beads and the acid. The sample is then put in a 28 °C water bath (for DMSO) for 20 - 24h or left on the bench at 22 °C (for acetonitrile) for 1.5 - 2 h and then the NMR measurement was carried out at 20 °C.
Figure S52: Overlay the acid with the Figure S54: Visualized gradient after stock solution of two indicators and the 18h in DMSO (with Bromthymolblue) […]
Figure S53: Development of gradients in temperated water S145 […]
13.4 Indicator and Acid Data
Table S67: Limiting shifts (δH for the fully protonated and δL for the free base), pKas and abbreviations of indicators and acids in acetonitrile.
Table S68: Limiting shifts (δH for the fully protonated and δL for the free base), pKas and abbreviations of indicators

[11] = Kinetics of IChU reactions with reference electrophile (lil)2CH+ (stopped-flow photometry); type: physicochemical; conditions: E = −10.04, dichloromethane, 20 °C
Text: as §1
In accordance with observations in previous studies on ITU reactivity,^[ [119] ^] mixing the strongly colored benzhydrylium tetrafluoroborates 18 with excess IChUs in dichloromethane gave rise to decolorization of the solutions due to the formation of isochalcogenouronium tetrafluoroborates 19, which are colourless (Figure 3a). […] To establish pseudo first‐order conditions and to secure a sufficient decay of the benzhydrylium's absorbance during the course of the reactions, the IChUs were employed at higher concentrations than the benzhydrylium ions. First‐order rate constants k obs (s^−1) were determined by fitting the mono‐exponential decay function in Equation (2) to the decreasing absorbance (A) of 18 during their reaction with the IChUs as exemplified for the reaction of ITeU3 with (ind)2CH^+ in Figure 3b. […]
First‐order rate constants k obs correlated linearly with the IChU concentration. Therefore, second‐order rate constants k 2 (L mol^−1 s^−1) were determined from the slope of the linear regression curves (Figure 3c ^[ [95] ^]). […]

[12] = Lewis basicity LB from equilibrium constants (photometric titrations) with benzhydrylium ions as reference Lewis acids; type: physicochemical; conditions: in dichloromethane, 20 °C
Experimental: (a) Lewis basicity. Previously, the Mayr group established a series of benzhydrylium ions as C‐centered Lewis acid references to construct a Lewis basicity scale in dichloromethane. Substituting experimentally determined equilibrium constants K (at 20 °C) and reported Lewis acidities LA for the benzhydrylium ions (Figure 7) in Equation (3) enables one to calculate the Lewis basicity (LB) of a Lewis base.^[ [121], [127] ^] (3) lgK(20^∘C)=LA+LB
The reversibility of the formation of adducts 19 (Equation (4)), which was also apparent in the kinetics by significant positive intercepts in several of the k obs versus [IChU] plots (Supporting Information), provided the opportunity to probe the thermodynamics of the C‐N bond‐forming reactions of IChUs with benzhydrylium ions as the reference Lewis acids in more detail.^[ [95] ^] (4) IChU+Ar2CH^+(18)⇌Ar2CH-IChU^+(19)
By assuming the validity of the Beer–Lambert law for dilute solutions, equilibrium constants K (L mol^−1) were determined in photometric titrations according to Equation (5) from the initial absorbance (A 0) of the benzhydrylium ions 18 and the absorbance at equilibrium (A, Equation 5), that is, after addition of a certain amount of an IChU.^[ [109], [110], [111], [112], [113], [114], [115], [119] ^] (5) K=[19]/[18]IChU=A0−A/AIChU

[13] = Kinetics of IChU reactions with reference electrophile (dma)2CH+ (stopped-flow photometry); type: physicochemical; conditions: E = −7.02, dichloromethane, 20 °C
Text: as §1, §2, §3, §4

[14] = Kinetics of IChU reactions with reference electrophile (ind)2CH+ (stopped-flow photometry); type: physicochemical; conditions: E = −8.76, dichloromethane, 20 °C
Text: as §1, §2, §3, §4

What does the source list for `c1ccc2c(c1)SC1=NCCCN12` [ITU3, DHPB]?
Second-order rate constant k2 exptl [1]: 2.29 × 10^5 ^a) L mol^−1 s^−1; Nucleophile-specific sensitivity parameter sN [2]: 0.78; Nucleophilicity parameter N [2]: 13.86; Brønsted basicity pKaH(H2O) [3]: 9.9 ^c); Second-order rate constant k2 exptl [4]: 1.11 × 10^4 ^a) L mol^−1 s^−1; Second-order rate constant k2 exptl [5]: 2.07 × 10^4 ^a) L mol^−1 s^−1; Second-order rate constant k2 exptl [6]: 7.49 × 10^4 ^a) L mol^−1 s^−1; Lewis basicity LB [7]: 15.39

Which “Nucleophile-specific sensitivity parameter sN” value [8] does the source give for `c1ccc2c(c1)[Te]C1=NCCCN12` [ITeU3, TeDHPB] here?
The value was 0.65.

What about the “Nucleophilicity parameter N” value [8] of the same compound?
Its value is 16.63.

And the “Second-order rate constant k2 exptl” value [9]?
Its value is 731000 M⁻¹ s⁻¹.

And the “Brønsted basicity pKaH(DMSO)” value ([10]; in DMSO)?
Its value is 11.0.

What about the “Brønsted basicity pKaH(MeCN)” value ([10]; in MeCN) of the same compound?
The value was 19.7.

What about the “Second-order rate constant k2 exptl” value [11] of the same compound?
Its value is 19400 M⁻¹ s⁻¹.

And the “Lewis basicity LB” value [12]?
Its value is 17.13.

What about the “Second-order rate constant k2 exptl” value [13] of the same compound?
The value was 1.67e+06 M⁻¹ s⁻¹.

What about the “Second-order rate constant k2 exptl” value [14] of the same compound?
The value was 127000 M⁻¹ s⁻¹.

— article PMC12643354, “From Oxygen to Tellurium: The Impact of the Chalcogen on Nucleophilicities and Basicities of Isochalcogenourea Catalysts” (Angewandte Chemie (International Ed. in English), 2025)
